PMC3569412, “In Vivo Imaging with Fluorescent Smart Probes to Assess Treatment Strategies for Acute Pancreatitis” (PLoS ONE, 2013)
pIC50: −log10 of the molar value. Values belong to the compound of their own block, whether it stands above or below them.

Legend:
h cathepsin B = h cathepsin B (Homo sapiens, UniProt P07858); assay: protease selectivity panel, enzyme activity assay; format: biochemical; conditions: 1 h pre-incubation RT
Text: (§1) The three drug-like compounds tested in the optical molecular imaging model were characterized for selectivity against a panel of recombinant proteases available at Novartis. The biochemical enzyme activity assays were based on the cleavage of peptidic substrates that are fluorescently labeled. In case of rhodamine-110 label fluorescence intensity and in case of PT14 label fluorescence lifetime was used as readout. The effect of the compound on the enzymatic activity was obtained from the linear part of the substrate cleavage progress curve at substrate concentrations well below KM, typically at 1 µM. All enzyme assays were conducted in 384-well plates with a final assay volume of 25 µl. Enzyme and compound (11 different concentrations from 100 µM to 0.0003 µM) were pre-incubated for one hour at room temperature (RT). Subsequently substrate was added and incubated for 1 h at RT prior to measurement.

h cathepsin C = h cathepsin C (Homo sapiens, UniProt P53634); assay: protease selectivity panel, enzyme activity assay; format: biochemical; conditions: 1 h pre-incubation RT
Text: as §1

h cathepsin G = h cathepsin G (Homo sapiens, UniProt P08311); assay: protease selectivity panel, enzyme activity assay; format: biochemical; conditions: 1 h pre-incubation RT
Chain of h cathepsin G (P08311 21-255): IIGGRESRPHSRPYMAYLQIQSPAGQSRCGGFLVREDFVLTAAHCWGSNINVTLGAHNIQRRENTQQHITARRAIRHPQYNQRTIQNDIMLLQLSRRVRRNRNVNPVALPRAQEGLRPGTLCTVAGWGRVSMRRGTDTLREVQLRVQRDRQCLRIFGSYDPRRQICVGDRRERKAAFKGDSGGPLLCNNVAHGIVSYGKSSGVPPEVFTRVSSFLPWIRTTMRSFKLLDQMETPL
Text: as §1

h cathepsin K = h cathepsin K (Homo sapiens, UniProt P43235); assay: protease selectivity panel, enzyme activity assay; format: biochemical; conditions: 1 h pre-incubation RT
Chain of h cathepsin K (P43235 115-329): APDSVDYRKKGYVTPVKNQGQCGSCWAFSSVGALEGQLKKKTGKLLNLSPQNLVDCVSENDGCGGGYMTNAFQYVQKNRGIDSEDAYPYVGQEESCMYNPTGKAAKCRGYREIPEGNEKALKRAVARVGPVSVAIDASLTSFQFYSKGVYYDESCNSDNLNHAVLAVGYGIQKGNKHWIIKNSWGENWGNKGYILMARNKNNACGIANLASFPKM
Text: as §1

h cathepsin L = h cathepsin L (Homo sapiens, UniProt P07711); assay: protease selectivity panel, enzyme activity assay; format: biochemical; conditions: 1 h pre-incubation RT
Text: as §1

h cathepsin S = h cathepsin S (Homo sapiens, UniProt P25774); assay: protease selectivity panel, enzyme activity assay; format: biochemical; conditions: 1 h pre-incubation RT
Chain of h cathepsin S (P25774 115-331): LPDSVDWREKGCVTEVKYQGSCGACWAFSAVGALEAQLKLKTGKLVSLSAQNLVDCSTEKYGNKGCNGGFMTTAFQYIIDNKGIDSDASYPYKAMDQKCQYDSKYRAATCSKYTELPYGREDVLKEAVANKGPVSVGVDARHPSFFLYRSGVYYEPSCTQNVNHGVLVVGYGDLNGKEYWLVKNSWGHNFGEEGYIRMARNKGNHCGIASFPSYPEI
Text: as §1

h cationic trypsin = h cationic trypsin (Homo sapiens, UniProt P07477); assay: protease selectivity panel, enzyme activity assay; format: biochemical; conditions: 1 h pre-incubation RT
Text: as §1

h chymase = h chymase (Homo sapiens, UniProt P23946); assay: protease selectivity panel, enzyme activity assay; format: biochemical; conditions: 1 h pre-incubation RT
Text: as §1

h factor VIIa = h factor VIIa (Homo sapiens, UniProt P08709); assay: protease selectivity panel, enzyme activity assay; format: biochemical; conditions: 1 h pre-incubation RT
Chain of h factor VIIa (P08709 213-466 limits assumed): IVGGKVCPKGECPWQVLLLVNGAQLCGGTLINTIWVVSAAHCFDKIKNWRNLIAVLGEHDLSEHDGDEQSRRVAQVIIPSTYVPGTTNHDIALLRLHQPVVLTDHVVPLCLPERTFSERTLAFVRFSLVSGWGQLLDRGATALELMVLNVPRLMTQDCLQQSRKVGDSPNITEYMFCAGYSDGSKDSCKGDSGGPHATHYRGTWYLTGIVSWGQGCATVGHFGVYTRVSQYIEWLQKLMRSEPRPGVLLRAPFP
Chain of h factor VIIa (P08709 61-212 partner limits assumed): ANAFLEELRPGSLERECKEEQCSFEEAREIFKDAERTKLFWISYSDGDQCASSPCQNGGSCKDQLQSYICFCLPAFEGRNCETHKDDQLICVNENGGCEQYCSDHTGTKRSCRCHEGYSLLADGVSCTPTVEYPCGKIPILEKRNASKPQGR
Text: as §1

h factor XIIa = h factor XIIa (Homo sapiens, UniProt P00748); assay: protease selectivity panel, enzyme activity assay; format: biochemical; conditions: 1 h pre-incubation RT
Chain of h factor XIIa (P00748 373-615 limits assumed): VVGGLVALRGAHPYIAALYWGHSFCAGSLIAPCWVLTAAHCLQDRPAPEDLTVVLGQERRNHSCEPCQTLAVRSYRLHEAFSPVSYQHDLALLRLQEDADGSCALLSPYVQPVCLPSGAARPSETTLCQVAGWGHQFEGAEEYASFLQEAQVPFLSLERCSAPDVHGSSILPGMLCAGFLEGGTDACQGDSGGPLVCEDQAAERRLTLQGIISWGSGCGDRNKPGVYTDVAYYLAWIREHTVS
Text: as §1

h factor XIa = h factor XIa (Homo sapiens, UniProt P03951); assay: protease selectivity panel, enzyme activity assay; format: biochemical; conditions: 1 h pre-incubation RT
Chain of h factor XIa (P03951 388-625 limits assumed): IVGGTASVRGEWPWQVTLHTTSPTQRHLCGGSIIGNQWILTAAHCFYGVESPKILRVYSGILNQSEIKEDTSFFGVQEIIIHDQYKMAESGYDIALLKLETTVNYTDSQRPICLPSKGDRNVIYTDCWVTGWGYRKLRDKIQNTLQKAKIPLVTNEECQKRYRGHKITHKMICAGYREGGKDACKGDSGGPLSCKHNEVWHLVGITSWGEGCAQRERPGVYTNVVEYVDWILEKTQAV
Text: as §1

h factor Xa = h factor Xa (Homo sapiens, UniProt P00742); assay: protease selectivity panel, enzyme activity assay; format: biochemical; conditions: 1 h pre-incubation RT
Chain of h factor Xa (P00742 235-488 limits assumed): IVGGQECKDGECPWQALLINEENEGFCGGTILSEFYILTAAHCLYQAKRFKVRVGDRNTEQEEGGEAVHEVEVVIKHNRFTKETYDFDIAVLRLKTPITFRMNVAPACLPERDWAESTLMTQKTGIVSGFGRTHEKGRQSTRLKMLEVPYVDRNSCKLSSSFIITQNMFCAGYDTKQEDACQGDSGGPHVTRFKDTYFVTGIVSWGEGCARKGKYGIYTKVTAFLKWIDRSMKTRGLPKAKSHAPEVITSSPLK
Chain of h factor Xa (P00742 41-179 partner limits assumed): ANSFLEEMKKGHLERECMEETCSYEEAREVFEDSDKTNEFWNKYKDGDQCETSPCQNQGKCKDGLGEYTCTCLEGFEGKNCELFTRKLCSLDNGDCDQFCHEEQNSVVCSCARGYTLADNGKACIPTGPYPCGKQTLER
Text: as §1

h kallikrein 1 = h kallikrein 1 (Homo sapiens, UniProt P06870); assay: protease selectivity panel, enzyme activity assay; format: biochemical; conditions: 1 h pre-incubation RT
Chain of h kallikrein 1 (P06870 25-262): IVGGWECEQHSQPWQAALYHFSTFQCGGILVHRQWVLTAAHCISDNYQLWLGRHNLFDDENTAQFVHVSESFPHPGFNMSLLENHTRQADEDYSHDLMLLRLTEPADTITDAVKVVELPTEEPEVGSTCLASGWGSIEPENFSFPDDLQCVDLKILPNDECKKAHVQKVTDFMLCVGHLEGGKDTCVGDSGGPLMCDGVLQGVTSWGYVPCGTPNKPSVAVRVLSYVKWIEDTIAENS
Text: as §1

h kallikrein 5 = h kallikrein 5 (Homo sapiens, UniProt Q9Y337); assay: protease selectivity panel, enzyme activity assay; format: biochemical; conditions: 1 h pre-incubation RT
Chain of h kallikrein 5 (Q9Y337 23-293): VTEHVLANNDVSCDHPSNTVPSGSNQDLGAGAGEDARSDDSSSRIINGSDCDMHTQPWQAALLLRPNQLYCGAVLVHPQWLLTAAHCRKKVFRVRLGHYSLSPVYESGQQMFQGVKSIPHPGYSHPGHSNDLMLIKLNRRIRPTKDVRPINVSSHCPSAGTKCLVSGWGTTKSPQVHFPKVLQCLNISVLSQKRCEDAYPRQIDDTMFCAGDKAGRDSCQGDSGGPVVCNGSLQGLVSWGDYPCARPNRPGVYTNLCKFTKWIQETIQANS
Text: as §1

h kallikrein 7 = h kallikrein 7 (Homo sapiens, UniProt P49862); assay: protease selectivity panel, enzyme activity assay; format: biochemical; conditions: 1 h pre-incubation RT
Chain of h kallikrein 7 (P49862 30-253): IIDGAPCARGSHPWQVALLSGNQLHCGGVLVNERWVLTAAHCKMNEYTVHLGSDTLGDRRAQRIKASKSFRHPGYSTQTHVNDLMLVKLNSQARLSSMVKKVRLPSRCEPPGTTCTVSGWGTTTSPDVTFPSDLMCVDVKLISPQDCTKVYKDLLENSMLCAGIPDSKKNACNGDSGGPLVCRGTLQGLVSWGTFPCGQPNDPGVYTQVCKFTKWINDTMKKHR
Text: as §1

h matriptase = h matriptase (Homo sapiens, UniProt Q9Y5Y6); assay: protease selectivity panel, enzyme activity assay; format: biochemical; conditions: 1 h pre-incubation RT
Chain of h matriptase (Q9Y5Y6 whole entry): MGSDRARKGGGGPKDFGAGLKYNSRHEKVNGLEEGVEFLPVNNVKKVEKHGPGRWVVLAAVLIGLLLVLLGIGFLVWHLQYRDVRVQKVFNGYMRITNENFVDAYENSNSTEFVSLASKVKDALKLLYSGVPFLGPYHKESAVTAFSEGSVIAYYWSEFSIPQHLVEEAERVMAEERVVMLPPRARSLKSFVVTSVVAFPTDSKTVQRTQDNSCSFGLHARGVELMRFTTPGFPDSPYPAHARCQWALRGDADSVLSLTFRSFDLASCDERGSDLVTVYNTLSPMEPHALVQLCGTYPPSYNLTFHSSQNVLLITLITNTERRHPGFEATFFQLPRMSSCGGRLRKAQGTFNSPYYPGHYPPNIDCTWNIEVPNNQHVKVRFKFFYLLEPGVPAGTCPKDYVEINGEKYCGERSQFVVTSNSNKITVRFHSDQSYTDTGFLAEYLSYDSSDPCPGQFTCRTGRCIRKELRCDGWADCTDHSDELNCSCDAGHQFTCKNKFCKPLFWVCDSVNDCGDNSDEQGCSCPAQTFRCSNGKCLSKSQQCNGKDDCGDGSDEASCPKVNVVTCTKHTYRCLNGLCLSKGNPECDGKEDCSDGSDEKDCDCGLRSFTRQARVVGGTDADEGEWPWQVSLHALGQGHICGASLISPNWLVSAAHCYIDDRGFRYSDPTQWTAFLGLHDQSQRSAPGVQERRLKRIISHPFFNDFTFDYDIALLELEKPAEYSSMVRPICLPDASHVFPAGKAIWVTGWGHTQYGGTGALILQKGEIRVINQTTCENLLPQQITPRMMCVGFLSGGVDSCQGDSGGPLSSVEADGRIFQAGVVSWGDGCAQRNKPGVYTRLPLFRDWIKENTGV
Text: as §1

h neutrophil elastase = h neutrophil elastase (Homo sapiens, UniProt P08246); assay: protease selectivity panel, enzyme activity assay; format: biochemical; conditions: 1 h pre-incubation RT
Chain of h neutrophil elastase (P08246 30-267): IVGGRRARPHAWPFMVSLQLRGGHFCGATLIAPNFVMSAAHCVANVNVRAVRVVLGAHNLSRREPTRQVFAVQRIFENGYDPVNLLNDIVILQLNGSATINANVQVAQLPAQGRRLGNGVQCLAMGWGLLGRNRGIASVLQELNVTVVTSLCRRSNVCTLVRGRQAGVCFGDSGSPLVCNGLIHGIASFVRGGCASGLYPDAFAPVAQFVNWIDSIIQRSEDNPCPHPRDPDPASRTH
Text: as §1

h plasma kallikrein = h plasma kallikrein (Homo sapiens, UniProt P03952); assay: protease selectivity panel, enzyme activity assay; format: biochemical; conditions: 1 h pre-incubation RT
Chain of h plasma kallikrein (P03952 20-638): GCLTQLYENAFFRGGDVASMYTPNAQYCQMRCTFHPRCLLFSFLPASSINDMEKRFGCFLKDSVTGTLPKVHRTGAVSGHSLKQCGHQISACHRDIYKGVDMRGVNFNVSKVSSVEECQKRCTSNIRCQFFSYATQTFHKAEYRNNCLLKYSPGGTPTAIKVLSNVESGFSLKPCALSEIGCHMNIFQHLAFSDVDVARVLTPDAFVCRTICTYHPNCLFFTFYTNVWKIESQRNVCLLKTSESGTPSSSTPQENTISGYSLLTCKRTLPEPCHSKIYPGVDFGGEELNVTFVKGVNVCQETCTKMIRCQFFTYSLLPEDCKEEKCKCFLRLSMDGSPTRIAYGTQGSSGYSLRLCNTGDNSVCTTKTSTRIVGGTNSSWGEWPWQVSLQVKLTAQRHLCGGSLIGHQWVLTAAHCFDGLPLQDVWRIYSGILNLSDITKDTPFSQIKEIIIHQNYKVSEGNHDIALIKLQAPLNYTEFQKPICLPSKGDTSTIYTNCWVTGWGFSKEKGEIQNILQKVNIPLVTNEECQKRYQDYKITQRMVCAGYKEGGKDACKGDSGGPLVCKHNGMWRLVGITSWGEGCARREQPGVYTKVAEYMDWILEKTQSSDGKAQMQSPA
Text: as §1

h proteinase 3 = h proteinase 3 (Homo sapiens, UniProt P24158); assay: protease selectivity panel, enzyme activity assay; format: biochemical; conditions: 1 h pre-incubation RT
Chain of h proteinase 3 (P24158 28-256): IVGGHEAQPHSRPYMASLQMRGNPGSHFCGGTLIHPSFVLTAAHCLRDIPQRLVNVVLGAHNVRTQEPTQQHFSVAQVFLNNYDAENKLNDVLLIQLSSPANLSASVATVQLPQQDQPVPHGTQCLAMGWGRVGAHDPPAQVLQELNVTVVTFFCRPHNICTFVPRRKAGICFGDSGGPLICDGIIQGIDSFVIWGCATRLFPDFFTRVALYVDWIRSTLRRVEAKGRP
Text: as §1

h chymotrypsin = assay: protease selectivity panel, enzyme activity assay; format: biochemical, human; conditions: 1 h pre-incubation RT
Text: as §1

h pancreatic elastase = assay: protease selectivity panel, enzyme activity assay; format: biochemical, human; conditions: 1 h pre-incubation RT
Text: as §1

[1] = tested on: trypsin activity in rat pancreas; assay: in vivo optical imaging of activatable probe signal in pancreas, caerulein-injection pancreatitis model; conditions: Camostat 300 mg/kg orally; vs untreated caerulein animals; P<0.001
Method: 280–320 g female Sprague Dawley rats were received from Charles Rivers Laboratory. Animals were maintained in a facility with a controlled temperature (21–24°C) and lighting (12∶12 h light: dark cycle). Animals were placed on a chlorophyll-free diet (Harlan TK2916) 10 days prior and for the duration of the imaging study to reduce the amount of autofluorescence and had free access to drinking water. One day prior to the experiment, animals were shaved at the abdomen for imaging studies. The pancreatitis model was induced by hyperstimulation with the cholecystokinin (CCK) analog caerulein (Sigma-Aldrich, St. Louis, MO). […]
(§2) In vivo optical imaging studies were conducted using a spectral imaging system, Maestro (Perkin Elmer, Boston, MA). […] Animals were imaged before the start of the study for background/autofluorescence, and at 20 minutes after the mPEG-PL-Cy5.5 probe administration for basal increase in fluorescence due to probe administration. […]
Region of the pancreas and liver were determined and defined from whole body clean images acquired after sacrificing the animals, and used on all corresponding in vivo images in the same animal. Fluorescent intensity at various time points from the same animal were normalized by fluorescence intensity determined before the start of the caerulein insult and the change in signal intensity was then plotted as a function of time.

[2] = tested on: trypsin activity in rat pancreas; assay: ex vivo fluorescence imaging of excised pancreas (total signal intensity of activated probe); format: in vivo; conditions: Camostat 300 mg/kg orally; vs untreated animals; P<0.01
Method: 280–320 g female Sprague Dawley rats were received from Charles Rivers Laboratory. Animals were maintained in a facility with a controlled temperature (21–24°C) and lighting (12∶12 h light: dark cycle). Animals were placed on a chlorophyll-free diet (Harlan TK2916) 10 days prior and for the duration of the imaging study to reduce the amount of autofluorescence and had free access to drinking water. One day prior to the experiment, animals were shaved at the abdomen for imaging studies. The pancreatitis model was induced by hyperstimulation with the cholecystokinin (CCK) analog caerulein (Sigma-Aldrich, St. Louis, MO). […] For studies with Novartis166 and Novartis848, varying concentrations, in a solution, were administered intraperitonealy (IP) only once, one hour before caerulein administration. Self-quenched protease activatable mPEG-PL-Cy5.5 probe was administered to all animals via the tail vein at a dose of 80 nmol/kg 40 minutes prior to the start of caerulein administration for measuring the amount of activated trypsin in the pancreas. […]
as §2

[3] = tested on: rat caerulein-injection pancreatitis model; assay: in vivo edema imaging with blood pool agent Angiosense 680; conditions: Camostat 300 mg/kg orally; three caerulein doses SC
trypsin [4] = assay: assessment of trypsin concentration in pancreas extracts; format: in vivo, rat; conditions: Camostat 300 mg/kg orally; vs untreated saline animals
Method: The pancreas was removed from the euthanized animals, weighted and transferred into Dispomix tubes (Miltenyi Biotec, Bergisch Gladbach, Germany). After the addition of ice-cold PBS buffer (1 µl per […]), the pancreas was homogenized with a gentleMACS™ Dissociator (Miltenyi Biotec, Bergisch Gladbach, Germany). The homogenate was centrifuged at 4°C and 20,000 g for 10 min. The supernatant was stored at −20°C. The activity assay was performed at room temperature in 384-well plates in a total assay volume of 20 µl per well. For fluorescence quantification a Safire2 (Tecan, Maennedorf, Switzerland) instrument was used with fluorescence excitation and emission wavelengths of 485 nm and 535 nm, respectively. 10 µl of dilutions of extracts (typical range: 1∶500 to 1∶2,000) were transferred to 384 well assay plates. […] The enzymatic activity in the pancreatic extract was obtained from the linear progression curves and determined after one hour. Signal-to-background (S/B) values within the linear range of the assay signal were selected to calculate the trypsin concentrations of the extract analyzed. […] The amount of trypsin was calculated by transforming S/B levels obtained in the activity assay of extract dilutions fulfilling initial enzyme velocity criteria into trypsin concentration values via a calibration curve using recombinant rat trypsin S1-94.

trypsin [5] = assay: mPEG-PL-Cy5.5 probe activation by pancreatic enzymes with or without SPINK1; format: biochemical; conditions: 0.2 µM probe, 100 nM enzyme, 1 µM SPINK1
Method: All enzyme assays were conducted in 384-well plates with a final substrate ( = mPEG-PL-Cy5.5 probe) concentration of 0.2 µM diluted in the appropriate assay buffer in a final assay volume of 25 µl. Enzyme and, in cases where applied, SPINK-1 (final assay concentration: 1 µM) were pre-incubated for one hour at room temperature. Subsequently substrate was added and incubated for 3 h at 37°C prior to measurement. All enzymes were either commercially obtained or prepared as described previously, [17], [18], [19].
Enzyme, SPINK-1 and substrate solutions were transferred to 384-well plates by means of a CyBi Well pipettor (CyBio, Jena, Germany). Plate measurements were conducted by the means of a Safire2 microplate reader (TECAN, Maennedorf, Switzerland) and wavelengths of 680 nm and 700 nm were taken for fluorescence excitation and emission acquisition, respectively. The bandwidths were set to 10 nm in both the excitation and the emission path. The fluorescence in each well was excited by three flashes per measurement.

- pIC50 (h cathepsin B): < 4.30
- pIC50 (h cathepsin C): < 4.30
- pIC50 (h cathepsin G): 4.35
- pIC50 (h cathepsin K): < 4.30
- pIC50 (h cathepsin L): < 4.30
- pIC50 (h cathepsin S): < 4.30
- pIC50 (h cationic trypsin): 8.55
- pIC50 (h chymase): < 4.30
- pIC50 (h factor VIIa): 6.27
- pIC50 (h factor XIIa): 5.10
- pIC50 (h factor XIa): 8.10
- pIC50 (h factor Xa): 5.18
- pIC50 (h kallikrein 1): 4.14
- pIC50 (h kallikrein 5): 7.00
- pIC50 (h kallikrein 7): 4.38
- pIC50 (h matriptase): 8.19
- pIC50 (h neutrophil elastase): 4.04
- pIC50 (h plasma kallikrein): 8.70
- pIC50 (h proteinase 3): < 4.30
- pIC50 (h chymotrypsin): 4.91
- pIC50 (h pancreatic elastase): < 4.30
Compound: CN(C)C(=O)COC(=O)Cc1ccc(OC(=O)c2ccc(NC(=N)N)cc2)cc1 [Camostat]
- in vivo mPEG-PL-Cy5.5 probe activation in pancreas [1]: reduced probe activation
- probe activation in dissected pancreas (ex vivo) [2]: suppressed
- Angiosense 680 signal in pancreas (edema imaging) [3]: no signal enhancement
- amount of enzymatically active trypsin in pancreas (trypsin [4]): significant reduction in the amount of active trypsin

- protease activation of mPEG-PL-Cy5.5 probe by trypsin in the presence of SPINK1 (trypsin [5]): suppressed to background levels
Compound: SPINK1: highly specific trypsin inhibiting protein; endogenous trypsin inhibitor Kazal type 1 (DSLGREAKCYNELNGCTKIYDPVCGTDGNTYPNECVLCFENRKRQTSILIQKSGPC; UniProt P00995 24-79, looked up)
